Patent US5731452A, “7-thiaprostaglandins and method of production thereof” (Teijin Limited, priority 1994, dated 1998)

Columns and labels:
[1] = test system: cell migration induced by MCP-1 in human promonocytic leukemia cell line, THP-1; assay: Activity for inhibiting cell migration induced by MCP-1 (THP-1 cells); type: cell-based; conditions: 20 ng/ml recombinant human MCP-1, 37° C., two hours
Procedure: The cell migration induced by the monocyte chemoattractant protein MCP-1/MCAF was measured for the purpose of investigating the activity of the tested compounds shown in Table 1 in inhibiting cell migration by the following manner in accordance with the method of Falk et al. (J. Immunol. Methods, 33, 239-247 (1980)) using human promonocytic leukemia cell line, THP-1 (ATCC TIB203). That is, THP-1 cells diluted to 2×10^6 /ml by 10% fetal calf serum: FCS-containing RPMI-1640 medium (made by Flow Laboratories) were added to the upper chamber (200 μl) of the 96-well microchemotaxis chamber (made by Neuroprobe Inc.) while recombinant human MCP-1 (made by Peprotech Co.) diluted by the same medium to a final concentration of 20 ng/ml was added to the bottom chamber (35 μl). A polycarbonate filter (pore size of 5 μm, PVP-free, made by Neuroprobe Co) was affixed between the two. Incubation was performed at 37° C. in the presence of 5% CO2 for two hours. The filter was taken out, then the cells migrating to the bottom surface of the filter were fixed and stained by a Diff Quick solution (made by International Reagents Co.), then were measured by a plate reader (made by Molecular Device Co.) at a measurement wavelength of 550 nm. The mean value of three wells was determined and used as the indicator of the number of the migrating cells. At this time, the text compounds were added at various concentrations along with the THP-1 cells to the top chambers and the activity in inhibiting cell migration was determined. The percent of inhibition of cell migration was found by dividing the {(number of migrating cells caused by the MCP-1 added to the bottom chamber in the case of the test compound being added to the top chamber)--(number of migrating cells in the case of no test compound being added to the top chamber and no MCP-1 being added to the bottom chamber)} by the {(number of migrating cells caused by the MCP-1 added to the bottom chamber in the case of no test compound being added to the top chamber)--(number of migrating cells in the case of no test compound being added to the top chamber and no MCP-1 being added to the bottom chamber)}.

[2] = test system: rat platelet; assay: Rat platelet aggregation inhibiting activity; type: cell-based; conditions: rat platelet rich plasma; adenosine 2-phosphate induced; 37° C., one minute
Procedure: Wistar rats (males, approximately 400 g) were made to fast for one day, the entire blood was removed from the chest artery under anesthesia by ether, then a 1/10 volume of 3.8% aqueous solution of sodium citrate was added and immediately mixed in. The solution was centrifuged at 1000 rpm for 10 minutes, then the upper layer was used as the platelet rich plasma. The lower layer was centrifuged at 3000 rpm for 10 minutes and the upper layer of that was used as the platelet poor plasma. The platelet rich plasma was diluted by the platelet poor plasma to give a number of platelets of 3.5×10^8 /mm^3. This was used for the measurement. Note that the measurement of the platelets was performed using an automatic blood cell counter MEK-4500 (Nihon Koden). The measurement of the platelet aggregation was performed by measuring the turbidity using an NBS HEMA TRACER 801 (M.C. Medical). 90 μl of the platelet solution was inserted in a cuvette, then 5 μl each of the test compounds was added to give the target final concentration. The result was heated for one minute at 37° C., then 5 μl of a 100 μM aqueous solution of adenosine 2-phosphate (M.C. Medical) was added to induce platelet aggregation. The aggregation inhibiting activity was found from the following formula.
Aggregation inhibiting rate (%)={1-(maximum change of turbidity at time of
addition of drug)/(maximum change of turbidity at time of non-addition of
Further, the concentration of the compound giving 50% inhibition was used as the IC50.

IC50 [1]	also measured	SMILES
< 1 nM		CCCC(=O)OC1=C(SCCCCCC(=O)OC)[C@@H](/C=C/C(O)Cc2ccc(Cl)cc2)[C@H](O)C1 (stereo partly drawn) [drawing 166]
	IC50 [2]: 52 nM	CCCCC(C)C[C@H](O)/C=C/[C@@H]1C(SCCCCCC(=O)OC)=C(OC(C)=O)C[C@H]1O (stereo partly drawn)
	IC50 [2]: 290 nM	CCCC(=O)OC1=C(SCCCCCC(=O)OC)[C@@H](/C=C/C(O)CCCc2ccccc2)[C@H](O)C1 (stereo partly drawn) [drawing 180]
1.2 nM		CCCC(=O)OC1=C(SCCCCCC(=O)OC)[C@@H](/C=C/C(O)Cc2cccc(C)c2)[C@H](O)C1 (stereo partly drawn) [drawing 154]
2.3 nM		CCCC(=O)OC1=C(SCCCCCC(=O)OC)[C@@H](/C=C/C(O)Cc2cccc(OC)c2)[C@H](O)C1 (stereo partly drawn) [drawing 158]
8 nM		CCCC(=O)OC1=C(SCCCCCC(=O)OC)[C@@H](/C=C/C(O)Cc2cccc(Cl)c2)[C@H](O)C1 (stereo partly drawn) [drawing 155]
230 nM		CCCC(=O)OC1=C(SCCCCCC(=O)OC)[C@@H](/C=C/C(O)Cc2cccc(C(=O)OC)c2)[C@H](O)C1 (stereo partly drawn) [drawing 159]
	IC50 ([1]; Homo sapiens, THP-1, 2 h): 8.5 nM	CCCC(=O)OC1=C(SCCCCCC(=O)OC)[C@@H](/C=C/C(O)CCc2ccccc2)[C@H](O)C1 (stereo partly drawn)
	IC50 ([1]; Homo sapiens, THP-1, 2 h): 0.22 nM	CCCCC[C@H](O)/C=C/[C@@H]1C(SCCCCCC(=O)OC)=C(OC(=O)[C@H](Cc2ccccc2)NC(=O)OCc2ccccc2)C[C@H]1O
	IC50 [2]: 380 nM	CCCC(=O)OC1=C(SCCCCCC(=O)OC)[C@@H](/C=C/C(O)CC(C)C)[C@H](O)C1 (stereo partly drawn)
	IC50 ([1]; Homo sapiens, THP-1, 2 h): 3 nM	CCCC(=O)OC1=C(SCCCCCC(=O)OC)[C@@H](/C=C/C(O)[C@H](C)c2ccccc2)[C@H](O)C1 (stereo partly drawn) [drawing 137]
	IC50 [2]: 284 nM	CCCC(=O)OC1=C(SCCCCCC(=O)OC)[C@@H](/C=C/[C@@H](O)C2CCCC2)[C@H](O)C1 [drawing 176]
< 100 nM		CCCC(=O)OC1=C(SCCCCCC(=O)OC)[C@@H](/C=C/C(O)Cc2ccc([N+](=O)[O-])cc2)[C@H](O)C1 (stereo partly drawn) [drawing 163]
0.021 nM		CCCC(=O)OC1=C(SCCCCCC(=O)OC)[C@@H](/C=C/C(O)C(C)c2ccccc2)[C@H](O)C1 (stereo partly drawn) [drawing 140]
0.08 nM		CCCC(=O)OC1=C(SCCCCCC(=O)OC)[C@@H](/C=C/C(O)Cc2ccsc2)[C@H](O)C1 (stereo partly drawn) [drawing 152]
4.3 nM		CCCC(=O)OC1=C(SCCCCCC(=O)OC)[C@@H](/C=C/C(O)CCCc2ccccc2)[C@H](O)C1 (stereo partly drawn) [drawing 147]
	IC50 ([1]; Homo sapiens, THP-1, 2 h): 2.1 nM	CCCCC(C)C[C@H](O)/C=C/[C@@H]1C(SCCCOCC(=O)OC)=C(OC(=O)CCC)C[C@H]1O (stereo partly drawn) [drawing 141]
	IC50 ([1]; Homo sapiens, THP-1, 2 h): 1.7 nM	CCCCC(C)(O)C/C=C/[C@@H]1C(SCCCCCC(=O)OC)=C(OC(=O)CCC)C[C@H]1O (stereo partly drawn)
	IC50 [2]: 129 nM	CCCCC(C)C[C@H](O)/C=C/[C@@H]1C(SCCCCCC(=O)OC)=C(OC(=O)CCC)C[C@H]1O (stereo partly drawn) [drawing 170]
	IC50 ([1]; Homo sapiens, THP-1, 2 h): 1.1 nM	CCCC(=O)OC1=C(SCCCCCC(=O)OC)[C@@H](/C=C/[C@@H](O)Cc2ccccc2)[C@H](O)C1
90 nM		CCCC(=O)OC1=C(SCCCCCC(=O)OC)[C@@H](/C=C/C(O)Cc2ccsc2)[C@H](O)C1 (stereo partly drawn) [drawing 151]
4000 nM		CCCC(=O)OC1=C(CCCCCCC(=O)OC)[C@@H](/C=C/C(O)Cc2ccccc2)[C@H](O)C1 (stereo partly drawn) [drawing 167]
600 nM		CCCC(=O)OC1=C(SCCCCCC(=O)OC)[C@@H](/C=C/C(O)Cc2cccc(C)c2)[C@H](O)C1 (stereo partly drawn) [drawing 153]
100 nM		CCCC(=O)OC1=C(SCCCCCC(=O)OC)[C@@H](/C=C/C(O)Cc2ccc(C)cc2)[C@H](O)C1 (stereo partly drawn) [drawing 149]
	IC50 [2]: 1280 nM	CCCCC(C)C[C@H](O)/C=C/[C@@H]1C(SCCCCCC(=O)OC)=C(OC(=O)C(C)(C)C)C[C@H]1O (stereo partly drawn)
> 5000 nM		CCCC(=O)OC1=C(SCCCCCC(=O)OC)[C@@H](/C=C/C(O)C(c2ccccc2)c2ccccc2)[C@H](O)C1 (stereo partly drawn) [drawing 143]
300 nM		CCCC(=O)OC1=C(SCCCCCC(=O)OC)[C@@H](/C=C/C(O)CCCc2ccccc2)[C@H](O)C1 (stereo partly drawn) [drawing 146]
